The source of these data is US10265321B2, “Uses of salt-inducible kinase (SIK) inhibitors” (Dana-Farber Cancer Institute, Inc., priority 2014, dated 2019).

SMILES strings stand for the structures.

Experiment [1] relates to Il10-Thy1.1 reporter in 10BiT BMDCs. Put plainly: Il10-Thy1.1 reporter gene detection in 10BiT BMDCs. The class given is cell-based, mouse. Particulars: 2 days treatment (0.5 μM), zymosan 18 hr. As for the experimental part: (§1) Bone marrow-derived DCs were differentiated from C57BL/6 bone marrow in the presence of GM-CSF-conditioned media. CD11c^+ CX3CR1^hi myeloid cells and CD11c^+ CX3CR1^− DCs were isolated from the small intestine lamina propria of Cx3cr1^eGFP/+ mice (12). Detection of cell-surface Thy1.1 expression on BMDCs from 10BiT reporter mice was conducted as described previously (24). Cell viability was estimated by change in total cellular ATP levels using CellTiterGlo assays (Promega). Preparation of recombinant SIK proteins and IC50 measurements were conducted as described previously (21). Total RNA was extracted using a NucleoSpin 96 RNA isolation kit (Macherey-Nagel) followed by cDNA synthesis and multiplex RT-PCR using a microfluidic dynamic array (Fluidigm). The concentrations of TNF-α, IL-6, IL-10, IL-12p40, IL-1β and RANTES in culture supernatants were detected using a FlexSet Cytometric bead array (BD Biosciences). Alternatively, IL-10 secretion was quantified using ELISA (BD Biosciences) or AlphaLISA (PerkinElmer) assays. NO production was estimated based on nitrate content in culture medium using the Greiss reagent.
Preparation of BMDCs from 10BiT reporter mice expressing an il10-Thy1.1 transgene, SIK inhibitor treatment and zymosan stimulation was conducted as described above. […]
For orientation: Reporter assays use an easily measured gene product as a stand-in for the process of interest.

Experiment [2] has as its system human MΦs or DCs. Nature of the experiment: Cytokine production by human macrophages and dendritic cells from PBMCs (ELISA). The class given is cell-based. The settings on record: 0.5 μM, 24 hr, zymosan 18 hr. As for the experimental part: Heparinized blood from healthy donors was obtained from Research Blood Components. Peripheral blood mononuclear cells (PBMCs) were obtained by density centrifugation of blood diluted 50% (vol/vol) with PBS over Ficoll-Paque (Pharmacia Biotech). PBMCs were further purified by plastic adherence for 1 hr and washed 5× with PBS. Monocytes within the PBMC pool were differentiated towards DCs in X-VIVO media (Lonza) supplemented with IL-4 (50 ng/mL, R&D Systems) and GM-CSF (50 ng/mL, R&D Systems) or macrophages in X-VIVO media supplemented with GM-CSF (5 ng/mL) and IFN-γ (5 ng/mL; PeproTech) for 7 days as described previously (Smeekens S P, et al. (2013) Functional genomics identifies type I interferon pathway as central for host defense against Candida albicans. Nature communications 4:1342). After third day, half of the culture medium was replaced by fresh DC/macrophages differentiation medium.
After stimulation of cells with microbial ligands, the culture medium was removed, clarified by centrifugation for 10 min at 14,000×g, and the concentration of TNF-α, IL-6, IL-10, IL-12p40, IL-1β and RANTES were measured using FlexSet Cytokine Bead Array (BD Biosciences) according to the manufacturer's instructions. Where indicated, ELISAs were used to detect IL-10 and IL-12p70 (BD Biosciences) according to the manufacturer's instructions. […]
For orientation: An ELISA detects its analyte on a solid surface through an enzyme-linked reagent.

In experiment [3] the target is Src (Homo sapiens, UniProt P12931). The settings on record: cited from earlier work.
Chain of Src (P12931 whole entry, species assumed): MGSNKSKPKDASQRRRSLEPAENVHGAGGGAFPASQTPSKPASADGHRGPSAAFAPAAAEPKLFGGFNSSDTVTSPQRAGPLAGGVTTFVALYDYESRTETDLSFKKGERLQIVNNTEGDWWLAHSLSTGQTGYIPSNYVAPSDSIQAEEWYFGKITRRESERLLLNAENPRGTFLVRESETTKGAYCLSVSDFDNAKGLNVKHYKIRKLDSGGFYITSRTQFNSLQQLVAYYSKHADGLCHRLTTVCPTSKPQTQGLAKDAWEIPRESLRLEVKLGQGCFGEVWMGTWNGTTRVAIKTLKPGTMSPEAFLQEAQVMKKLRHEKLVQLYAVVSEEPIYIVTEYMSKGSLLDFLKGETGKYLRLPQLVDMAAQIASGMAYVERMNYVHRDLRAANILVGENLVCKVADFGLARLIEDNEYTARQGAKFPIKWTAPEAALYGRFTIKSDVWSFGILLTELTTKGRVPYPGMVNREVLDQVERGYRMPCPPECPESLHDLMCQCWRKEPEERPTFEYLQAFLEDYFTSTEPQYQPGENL
Experiment [4] deals with CD11c+ CX3CR1hi myeloid cells and CD11c+ CX3CR1− DCs from the small intestine. Put plainly: Cytokine production by lamina propria gut myeloid cells. The class given is cell-based, mouse. The settings on record: 0.3 μM, 30 min pre-treatment. As for the experimental part: as §1
After stimulation of cells with microbial ligands, the culture medium was removed, clarified by centrifugation for 10 min at 14,000×g, and the concentration of TNF-α, IL-6, IL-10, IL-12p40, IL-1β and RANTES were measured using FlexSet Cytokine Bead Array (BD Biosciences) according to the manufacturer's instructions. Where indicated, ELISAs were used to detect IL-10 and IL-12p70 (BD Biosciences) according to the manufacturer's instructions. NO production was estimated based on nitrate content in culture medium using the Greiss reagent as described previously (Miletic A V, et al. (2007) Vav proteins control MyD88-dependent oxidative burst. Blood 109(8):3360-3368).
CX3CR1GFP/+ mice were euthanized and intestines cut into 3-4 pieces before inversion onto polyethylene tubes (Becton Dickinson). Intestinal fragments were washed with calcium- and magnesium-free PBS (Lonza), and mucus was removed with 1 mM DTT. […]

In the case of `COc1ccc(N(C(=O)Nc2c(C)cccc2C)c2cc(Nc3ccc(N4CCN(C)CC4)cc3)ncn2)c(OC)c1` [HG-9-91-01], the “enhancement of the fraction of BMDCs expressing Il10 following zymosan stimulation” value in experiment [1] is “more than 5 fold”. Moreover, in experiment [2], the “IL-10 production by human MΦs or DCs” value was “enhanced IL-10 production” and the “IL-12p70 secretion by human MΦs or DCs” value is listed as “dramatically reducing IL-12p70 secretion”. Moreover, the Src activity remaining result in experiment [3] is listed as “less than 4%”. Moreover, the “IL-10 production by CD11c+ CX3CR1hi cells” value in experiment [4] (LPS or zymosan 18 hr) was “enhanced IL-10 production”. Also, in experiment [4] (both subsets), the “secretion of TNF-α by gut myeloid cell subsets” value was “reduced secretion of TNF-α”. For the same compound, in experiment [4] (either subset), the “production of IL-6 or RANTES by gut myeloid cell subsets” value is “not affected”.
